Measured values taken from the NIST ThermoML archive (doi:10.1021/acs.jced.5b01082).
Numbers after ± are expanded uncertainties.

Assays:
[1] = 101.33 kPa, Liquid; for viscosity: Cone and plate viscometry; for mass density: Vibrating tube method
[2] = wn = mass fraction of the nth substance listed; details: 100 kPa, Liquid; for viscosity: Cone and plate viscometry; for mass density: Vibrating tube method

Row | viscosity ([1]; 298.15 K) [mPa·s] | mass density ([1]; 298.15 K) [kg/m3] | viscosity ([1]; 310.15 K) [mPa·s] | mass density ([1]; 310.15 K) [kg/m3] | viscosity ([1]; 318.15 K) [mPa·s] | mass density ([1]; 318.15 K) [kg/m3] | viscosity ([2]; 298.15 K, w2 = 0.151) [mPa·s] | mass density ([2]; 298.15 K, w2 = 0.151) [kg/m3] | viscosity ([2]; 310.15 K, w2 = 0.146) [mPa·s] | mass density ([2]; 310.15 K, w2 = 0.146) [kg/m3] | viscosity ([2]; 318.15 K, w2 = 0.142) [mPa·s] | mass density ([2]; 318.15 K, w2 = 0.142) [kg/m3] | Structure (SMILES)
1 | 999.6 ± 120 | 884.09 ± 9.7 | 482.6 ± 54 | 876.93 ± 9.6 | 316.7 ± 35 | 872.2 ± 9.5 |  |  |  |  |  |  | CC(CC(C)(C)C)CP(=O)([O-])CC(C)CC(C)(C)C.CCCCCCCCCCCCCC[P+](CCCCCC)(CCCCCC)CCCCCC
2 |  |  |  |  |  |  | 142.4 ± 15 | 909.07 ± 9.6 | 79.66 ± 8.2 | 900.11 ± 9.5 | 55.58 ± 5.7 | 893.78 ± 9.4 | CC(CC(C)(C)C)CP(=O)([O-])CC(C)CC(C)(C)C.CCCCCCCCCCCCCC[P+](CCCCCC)(CCCCCC)CCCCCC + O
